In US20050049295A1, “Process for the preparation of 5-(2-(4-(1,2-benzisothiazol-3-yl)-1piperazinyl) ethyl)-6-chloro-1, 3-dihydro-2h-indol-2-one hydrochloride (ziprasidone hydrochloride) and its intermediate” (DR. REDDY'S LABORATORIES LIMITED, priority 2003, published 2005):

How the values were obtained:
Type in all cases: physicochemical
[1] = Stability study with improved packing (inert atmosphere), 40° C. and 75% relative humidity; settings: 40° C./75% RH
Description: (§1) Ziprasidone hydrochloride prepared by the present invention can be packed with a specific process to prevent from hydrating or to improve stability during the storage or transporting of ziprasidone hydrochloride products. This can be achieved by storing the active substance in inert atmosphere, which is technologically and economically simple. The active substance Ziprasidone HCl is stored in polythene bag or containers. The inert atmosphere may be made by nitrogen or argon or mixture thereof. Silica gel or desiccant in air permeable bag may be used optionally along with inert gas in the polythene bag or container.
(§2) Stability study with improved packing (inert atmosphere):
Initial and up to two-month stability profile for the hygroscopic active substance Ziprasidone HCl is shown below:
The stability studies were carried out at 40° C. and 75% relative humidity condition.

[2] = X-ray powder diffractogram of initial and two-month stability samples; settings: Cu K alpha-1 radiation
Procedure: X-Ray diffractograms of active substance Ziprasidone HCl (Initial and after two month sample) were recorded on Bruker Axe, DS Advance Powder X-ray Diffractometer with Cu K alpha-1 Radiation source. The characteristic X-ray diffractogram of Ziprasidone hydrochloride was found similar.

[3] = Crystal size distribution / mean particle size D[4,3] (Malvern)
Procedure: Ziprasidone hydrochloride (3 Kg) in formic acid (4.5 L) was heated to 60-65° C. for clear dissolution. The solution was filtered to remove any solid particles and the filtrate was cooled to 50-55° C. Ziprasidone hydrochloride (7.5 gm) as seed compound was added to the cooled filtrate. After stirred for 2 hr at 50-55° C., the resulting solution was cooled slowly to 25-35° C. over 1 to 1.5 hour. Ethyl acetate (13.5 L) was added slowly at 25-35° C. over 2 hrs. The resulting mass was stirred for 30-45 min at 25-35° C. The compound was filtered under nitrogen atmosphere. The filtered wet compound was added to acetic acid (10 L) at 25-35° C. under nitrogen atmosphere, and the resulting mixture was stirred for 30-45 min at 25-35° C. The compound was filtered under nitrogen atmosphere, washed with ethyl acetate (10 L), and then dried the compound at 60° C. under reduced pressure for 3-4 hrs and then at 110-120° C. to get the Ziprasidone hydrochloride (2.2 Kg). The product purity by HPLC was analyzed as 99.8%. The crystal size distribution as measured by Malvern was: D10<18.75 micron, D50=114.82 micron, […] and the mean particle size or D[4,3]=123.8 micron.

[4] = Stability study with normal packing (without inert atmosphere), 40° C. and 75% relative humidity; settings: 40° C./75% RH
Procedure: Stability study with normal packing (without inert atmosphere): Initial and up to two-month stability profile with normal packing was carried out at 40° C. and 75% relative humidity conditions as follow: […]

[5] = Stability study with improved packing (inert atmosphere), 25° C. and 60% relative humidity; settings: 25° C./60% RH
Description: as §1, §2
The stability studies were also carried out at 25° C. and 60% relative humidity condition.

[6] = Example 15, crystal size distribution by Malvern

Assay ([1]; Initial): 99.4% w/w
Moisture content ([1]; Initial): 0.54% w/w
Total Impurity ([1]; Initial): 0.19% w/w
Assay ([1]; One month): 99.4% w/w
Moisture content ([1]; One month): 0.41% w/w
Total Impurity ([1]; One month): 0.19% w/w
Assay ([1]; Two month): 99.7% w/w
Moisture content ([1]; Two month): 0.54% w/w
Total Impurity ([1]; Two month): 0.20% w/w
X-ray diffractogram, initial versus after two month sample [2]: similar
mean particle size or D[4,3] ([3]; Example 12: reactive crystallization from base in formic acid with HCl in ethyl acetate): 94.1 micron
mean particle size or D[4,3] ([3]; Example 13: formic acid solvent, ethyl acetate anti-solvent, 30° C.): 101.1 micron
mean particle size or D[4,3] ([3]; Example 14: seeded cooling crystallization from formic acid): 264.5 micron
D10 [3, 6]: < 18.75 micron
D50 [3, 6]: 114.82 micron
D60 [3, 6]: < 236.5 micron
mean particle size or D[4,3] ([3]; Example 15: seeded, formic acid / ethyl acetate anti-solvent, acetic acid slurry): 123.8 micron
mean particle size or D[4,3] ([3]; Example 16: reverse addition of formic acid solution into hot seeded ethyl acetate, 1.5 Kg): 156.2 micron
D[4,3] ([3]; Example 17: reverse addition of formic acid solution into hot seeded ethyl acetate, 20 Kg): 132.2 micron
Moisture content ([4]; Initial): 0.25% w/w
Moisture content ([4]; One month): 3.45% w/w
Moisture content ([4]; Two month): 4.83% w/w
Assay ([5]; Initial): 99.4% w/w
Moisture content ([5]; Initial): 0.54% w/w
Total Impurity ([5]; Initial): 0.19% w/w
Assay ([5]; One month): 99.2% w/w
Moisture content ([5]; One month): 0.38% w/w
Total Impurity ([5]; One month): 0.18% w/w
Assay ([5]; Two month): 99.3% w/w
Moisture content ([5]; Two month): 0.48% w/w
Total Impurity ([5]; Two month): 0.21% w/w
SMILES: Cl.O=C1Cc2cc(CCN3CCN(c4nsc5ccccc45)CC3)c(Cl)cc2N1 [Ziprasidone hydrochloride, 5-(2-(4-(1,2-benzisothiazol-3-yl)-1-piperazinyl)ethyl)-6-chloro-1,3-dihydro-2H-indol-2-one hydrochloride]
